Test results reported in patent US20140178902A1, “METHOD FOR DETECTING INFECTIONS” (priority 2011, published 2014).

Legend:
[1] = test system: antibody (anti-PSC1A, rabbit antisera); experiment: Competitive ELISA: free FusC against antibody recognition of conjugate PSC2A; format: binding; conditions: Free FusC 6.5 μg/ml
Procedure: FIG. 5: Competitive ELISA detection of TAFC and FusC. A. Immobilised antigen was an equimolar combination of PSC2B and PSC3B (acetylated & non-acetylated cBSA-SMCC-FusC^Fe3+), coated at 2.5 μg/ml (250 ng/well). Murine antisera was used (1/1000) which was raised against KLH-sHSAB-ih/cTAFC(PSC1A & PSC1B); Competition antigens were either FusC or cTAFC (0-20 μg/ml, respectively). B. FusC detection by ELISA. Free FusC 6.5 μg/ml prevents antibody (anti-PSC1A, rabbit antisera) recognition of conjugate PSC2A (cBSA-SATA-SMCC-FusC).
Microtitre plates (Nunc Maxisorp™ available from Nunc A/S, Roskilde, Denmark) were coated with either FusC (range used for optimisation: 0-66 μg/ml) or an equimolar combination of PSC2B/PSC3B conjugates (range used for optimisation: 0-10 μg/ml) in 50 mM sodium carbonate pH 9.4 for 16 hr (100 μl/well). […] Finally the absorbance was measured at 450/620 nm using a Synergy plate reader and standard curves of A450/620 nm versus log FusC concentration (0-100 μg/ml (or 0-20 μg/ml TAFC) constructed, from which the concentration of FusC in normal clinical specimens, of animal and human origin, was computed.
For example, it was observed that FusC or TAFC, respectively, could be detected by ELISA using murine antisera [anti-KLH-sHSAB-ihTAFC or cTAFC] […]

rabbit Anti-FusC = experiment: Protein immunoblot of gold nanoparticle conjugates; format: binding; conditions: serial dilutions
Procedure: Confirmation of conjugate formation was performed using a protein immunoblot. 4 μl of AuNP-FsC-BSA, Au-BSA and FusC-BSA samples were spotted onto a nitrocellulose membrane strip in serial dilutions (A-E) prepared in 2 mM borate (pH 9.0). Spots were allowed to dry before the strip was blocked for 30 min in Marvel (5% (w/v) in PBS). Membranes were then incubated for 30 min with primary antibody (rabbit Anti-FusC), diluted using blocking buffer (1/1000). Nitrocellulose blots were subsequently washed (2×5 min) in blocking solution and then incubated with a 1/1000 dilution of anti-rabbit IgG peroxidase-conjugated secondary antibody (Sigma-Aldrich), shaking for 30 min at room temperature. The nitrocellulose membranes were then washed extensively (2×5 min) in blocking solution and rinsed (2×5 min) with PBS. Immunoreactive samples were visualized using Pierce ECL Chemiluminescent Substrate (Fischer Scientific) for the detection of horseradish peroxidase.

Compound	antibody recognition of conjugate PSC2A (cBSA-SATA-SMCC-FusC) [1]	reactivity in immunoblot with rabbit Anti-FusC (rabbit Anti-FusC)
C/C1=C/C(=O)N(O)CCCC(N)C(=O)OCC/C(C)=C\C(=O)N(O)CCCC(N)C(=O)OCC/C(C)=C\C(=O)N(O)CCCC(N)C(=O)OCC1 (centres unmarked) [FusC, fusarinine C]	prevents	
BSA-AuNP: negative control BSA gold nanoparticle conjugate		No reactivity is visible
